The source of these data is ChEMBL document CHEMBL5291721, “A preclinical secondary pharmacology resource illuminates target-adverse drug reaction associations of marketed drugs” (Nat Commun, 2023).

The target in assay [1] is T1, Prostaglandin G/H synthase 1 (Rattus norvegicus, UniProt Q63921).
T1 sequence (Q63921 whole entry): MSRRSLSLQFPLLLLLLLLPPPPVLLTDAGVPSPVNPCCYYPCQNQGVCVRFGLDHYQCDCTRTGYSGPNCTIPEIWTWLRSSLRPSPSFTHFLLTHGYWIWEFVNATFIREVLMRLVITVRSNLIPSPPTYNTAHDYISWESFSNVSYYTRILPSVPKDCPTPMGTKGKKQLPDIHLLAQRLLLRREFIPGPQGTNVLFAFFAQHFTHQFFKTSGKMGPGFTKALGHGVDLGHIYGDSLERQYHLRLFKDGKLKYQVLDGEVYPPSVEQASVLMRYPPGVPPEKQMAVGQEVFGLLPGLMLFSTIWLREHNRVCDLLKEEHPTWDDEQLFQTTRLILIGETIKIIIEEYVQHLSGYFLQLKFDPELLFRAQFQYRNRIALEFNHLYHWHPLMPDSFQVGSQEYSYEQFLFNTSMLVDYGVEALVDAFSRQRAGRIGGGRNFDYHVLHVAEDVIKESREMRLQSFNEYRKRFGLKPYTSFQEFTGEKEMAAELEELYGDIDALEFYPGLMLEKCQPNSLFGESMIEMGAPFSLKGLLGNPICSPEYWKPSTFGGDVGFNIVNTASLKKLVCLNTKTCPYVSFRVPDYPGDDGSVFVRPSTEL
It is filed as functional.

In assay [2] the target is Receptor tyrosine-protein kinase erbB-2 (Homo sapiens, UniProt P04626). It is filed as functional.
Sequence of Receptor tyrosine-protein kinase erbB-2 (P04626 whole entry): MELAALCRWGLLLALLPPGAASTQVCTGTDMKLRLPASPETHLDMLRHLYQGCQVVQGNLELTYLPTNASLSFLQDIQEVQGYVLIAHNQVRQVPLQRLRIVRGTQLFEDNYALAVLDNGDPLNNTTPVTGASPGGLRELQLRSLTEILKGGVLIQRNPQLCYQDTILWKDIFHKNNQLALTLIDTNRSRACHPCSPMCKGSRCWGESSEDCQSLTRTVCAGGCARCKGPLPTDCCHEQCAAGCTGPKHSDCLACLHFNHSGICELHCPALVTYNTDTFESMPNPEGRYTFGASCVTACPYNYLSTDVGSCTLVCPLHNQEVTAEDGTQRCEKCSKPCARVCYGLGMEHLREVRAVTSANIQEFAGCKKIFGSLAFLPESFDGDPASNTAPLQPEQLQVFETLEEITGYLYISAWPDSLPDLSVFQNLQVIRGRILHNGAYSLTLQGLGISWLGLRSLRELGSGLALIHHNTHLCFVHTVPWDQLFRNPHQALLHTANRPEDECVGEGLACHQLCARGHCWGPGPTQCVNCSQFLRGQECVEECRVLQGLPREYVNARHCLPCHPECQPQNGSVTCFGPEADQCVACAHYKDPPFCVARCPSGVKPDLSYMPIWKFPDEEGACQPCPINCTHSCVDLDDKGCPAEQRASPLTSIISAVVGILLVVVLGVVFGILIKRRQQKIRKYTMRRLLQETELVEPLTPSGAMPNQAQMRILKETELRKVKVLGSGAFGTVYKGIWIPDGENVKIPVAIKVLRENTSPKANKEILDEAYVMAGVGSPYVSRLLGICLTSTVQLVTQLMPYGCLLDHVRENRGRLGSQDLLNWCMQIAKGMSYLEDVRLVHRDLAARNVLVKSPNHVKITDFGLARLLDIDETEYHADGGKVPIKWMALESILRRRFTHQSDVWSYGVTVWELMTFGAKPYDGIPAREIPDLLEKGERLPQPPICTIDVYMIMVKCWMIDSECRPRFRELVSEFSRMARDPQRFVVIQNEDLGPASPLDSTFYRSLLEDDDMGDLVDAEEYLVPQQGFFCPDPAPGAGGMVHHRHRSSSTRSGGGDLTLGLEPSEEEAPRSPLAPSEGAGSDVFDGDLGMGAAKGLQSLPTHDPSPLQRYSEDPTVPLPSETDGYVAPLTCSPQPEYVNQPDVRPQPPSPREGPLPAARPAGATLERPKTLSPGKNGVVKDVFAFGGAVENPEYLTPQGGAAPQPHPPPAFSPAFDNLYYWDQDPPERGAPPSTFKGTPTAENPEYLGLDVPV
Assay [3] concerns the target Vascular endothelial growth factor receptor 2 (Homo sapiens, UniProt P35968). Format: functional.
In a further assay the target is Acetylcholinesterase (Homo sapiens, UniProt P22303). Format: functional.
Sequence of Acetylcholinesterase (P22303 whole entry): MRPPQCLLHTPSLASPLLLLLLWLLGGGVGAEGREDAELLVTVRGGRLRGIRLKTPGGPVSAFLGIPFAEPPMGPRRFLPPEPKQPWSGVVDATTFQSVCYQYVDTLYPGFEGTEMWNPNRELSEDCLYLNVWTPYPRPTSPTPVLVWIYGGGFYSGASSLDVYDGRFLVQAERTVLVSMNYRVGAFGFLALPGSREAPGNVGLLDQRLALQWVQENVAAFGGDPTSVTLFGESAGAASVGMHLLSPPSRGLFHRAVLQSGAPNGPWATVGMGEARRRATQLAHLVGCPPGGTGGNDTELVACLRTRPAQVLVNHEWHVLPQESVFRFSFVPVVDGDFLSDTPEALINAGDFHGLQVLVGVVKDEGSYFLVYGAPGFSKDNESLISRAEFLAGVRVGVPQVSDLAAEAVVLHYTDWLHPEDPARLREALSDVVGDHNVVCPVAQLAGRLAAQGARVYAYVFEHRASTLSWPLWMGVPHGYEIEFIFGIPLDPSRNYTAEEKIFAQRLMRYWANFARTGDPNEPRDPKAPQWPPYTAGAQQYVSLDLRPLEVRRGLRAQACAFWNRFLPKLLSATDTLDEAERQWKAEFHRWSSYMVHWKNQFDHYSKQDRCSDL
The target in the next assay is T2, Substance-K receptor (Homo sapiens, UniProt P21452).
T2 sequence (P21452 whole entry): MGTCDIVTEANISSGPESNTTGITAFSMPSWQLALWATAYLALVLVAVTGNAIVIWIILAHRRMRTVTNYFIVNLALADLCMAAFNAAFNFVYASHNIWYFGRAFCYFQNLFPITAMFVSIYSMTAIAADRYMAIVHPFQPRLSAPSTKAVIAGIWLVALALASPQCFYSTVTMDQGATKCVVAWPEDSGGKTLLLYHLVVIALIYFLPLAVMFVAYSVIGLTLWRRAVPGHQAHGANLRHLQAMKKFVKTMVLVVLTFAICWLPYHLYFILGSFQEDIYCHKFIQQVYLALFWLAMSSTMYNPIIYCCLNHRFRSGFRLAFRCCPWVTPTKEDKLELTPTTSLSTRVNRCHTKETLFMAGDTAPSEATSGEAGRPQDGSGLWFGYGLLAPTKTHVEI

The target of assay [4] is T3, Muscarinic acetylcholine receptor M4 (Homo sapiens, UniProt P08173).
T3 sequence (P08173 whole entry): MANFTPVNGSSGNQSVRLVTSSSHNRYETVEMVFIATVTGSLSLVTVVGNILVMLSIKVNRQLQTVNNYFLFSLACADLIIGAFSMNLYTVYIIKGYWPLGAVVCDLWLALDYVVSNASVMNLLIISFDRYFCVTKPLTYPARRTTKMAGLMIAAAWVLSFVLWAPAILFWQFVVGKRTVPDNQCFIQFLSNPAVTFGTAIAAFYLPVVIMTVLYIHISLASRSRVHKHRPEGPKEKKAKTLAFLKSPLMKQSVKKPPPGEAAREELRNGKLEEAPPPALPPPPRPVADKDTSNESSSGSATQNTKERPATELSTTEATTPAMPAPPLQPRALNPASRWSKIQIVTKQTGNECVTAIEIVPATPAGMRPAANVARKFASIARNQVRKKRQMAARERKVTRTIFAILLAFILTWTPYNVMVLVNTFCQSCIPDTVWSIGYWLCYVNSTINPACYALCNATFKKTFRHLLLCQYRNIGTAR

Assay [5] has as its target T4, Oxysterols receptor LXR-beta (Homo sapiens, UniProt P55055).
T4 sequence (P55055 whole entry): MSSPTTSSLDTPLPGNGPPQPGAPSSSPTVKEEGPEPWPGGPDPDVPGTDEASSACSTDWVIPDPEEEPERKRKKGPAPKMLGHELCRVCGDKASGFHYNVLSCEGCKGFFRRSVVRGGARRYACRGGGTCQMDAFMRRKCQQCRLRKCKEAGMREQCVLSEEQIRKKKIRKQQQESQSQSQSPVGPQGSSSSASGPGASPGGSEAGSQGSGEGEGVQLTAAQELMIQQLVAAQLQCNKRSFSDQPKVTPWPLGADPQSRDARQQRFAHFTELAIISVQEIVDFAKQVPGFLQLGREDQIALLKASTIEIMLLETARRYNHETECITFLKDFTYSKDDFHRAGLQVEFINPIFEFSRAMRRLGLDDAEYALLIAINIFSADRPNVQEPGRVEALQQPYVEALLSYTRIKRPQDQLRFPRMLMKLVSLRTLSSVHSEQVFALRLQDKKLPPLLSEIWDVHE
It is filed as functional.

For assay [6], the target named is T5, Retinoic acid receptor alpha (Homo sapiens, UniProt P10276).
T5 sequence (P10276 whole entry): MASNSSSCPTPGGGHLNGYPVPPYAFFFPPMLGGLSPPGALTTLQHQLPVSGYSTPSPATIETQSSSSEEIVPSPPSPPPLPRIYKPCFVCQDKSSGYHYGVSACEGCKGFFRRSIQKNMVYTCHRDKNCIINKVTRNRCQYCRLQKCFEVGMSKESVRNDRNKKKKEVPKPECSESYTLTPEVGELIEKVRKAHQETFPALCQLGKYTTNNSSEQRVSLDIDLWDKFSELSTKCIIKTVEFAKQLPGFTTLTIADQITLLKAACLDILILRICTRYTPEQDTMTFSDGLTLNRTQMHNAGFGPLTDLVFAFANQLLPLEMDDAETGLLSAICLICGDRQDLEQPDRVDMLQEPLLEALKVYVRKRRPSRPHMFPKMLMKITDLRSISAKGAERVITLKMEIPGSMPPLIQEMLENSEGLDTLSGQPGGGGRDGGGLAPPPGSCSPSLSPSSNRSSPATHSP
Format: functional, cell-based.

Assay [7] has as its target Synaptic vesicular amine transporter (Rattus norvegicus, UniProt Q01827). It is filed as functional.
Assay [8] deals with Rod cGMP-specific 3',5'-cyclic phosphodiesterase subunit alpha (Homo sapiens, UniProt P16499). It is filed as functional.
A further assay addresses D(1B) dopamine receptor (Homo sapiens, UniProt P21918).
Assay [9] addresses 5-hydroxytryptamine receptor 5A (Homo sapiens, UniProt P47898).
Also: assay procedure not described here.

Sequence of Vascular endothelial growth factor receptor 2 (P35968 whole entry): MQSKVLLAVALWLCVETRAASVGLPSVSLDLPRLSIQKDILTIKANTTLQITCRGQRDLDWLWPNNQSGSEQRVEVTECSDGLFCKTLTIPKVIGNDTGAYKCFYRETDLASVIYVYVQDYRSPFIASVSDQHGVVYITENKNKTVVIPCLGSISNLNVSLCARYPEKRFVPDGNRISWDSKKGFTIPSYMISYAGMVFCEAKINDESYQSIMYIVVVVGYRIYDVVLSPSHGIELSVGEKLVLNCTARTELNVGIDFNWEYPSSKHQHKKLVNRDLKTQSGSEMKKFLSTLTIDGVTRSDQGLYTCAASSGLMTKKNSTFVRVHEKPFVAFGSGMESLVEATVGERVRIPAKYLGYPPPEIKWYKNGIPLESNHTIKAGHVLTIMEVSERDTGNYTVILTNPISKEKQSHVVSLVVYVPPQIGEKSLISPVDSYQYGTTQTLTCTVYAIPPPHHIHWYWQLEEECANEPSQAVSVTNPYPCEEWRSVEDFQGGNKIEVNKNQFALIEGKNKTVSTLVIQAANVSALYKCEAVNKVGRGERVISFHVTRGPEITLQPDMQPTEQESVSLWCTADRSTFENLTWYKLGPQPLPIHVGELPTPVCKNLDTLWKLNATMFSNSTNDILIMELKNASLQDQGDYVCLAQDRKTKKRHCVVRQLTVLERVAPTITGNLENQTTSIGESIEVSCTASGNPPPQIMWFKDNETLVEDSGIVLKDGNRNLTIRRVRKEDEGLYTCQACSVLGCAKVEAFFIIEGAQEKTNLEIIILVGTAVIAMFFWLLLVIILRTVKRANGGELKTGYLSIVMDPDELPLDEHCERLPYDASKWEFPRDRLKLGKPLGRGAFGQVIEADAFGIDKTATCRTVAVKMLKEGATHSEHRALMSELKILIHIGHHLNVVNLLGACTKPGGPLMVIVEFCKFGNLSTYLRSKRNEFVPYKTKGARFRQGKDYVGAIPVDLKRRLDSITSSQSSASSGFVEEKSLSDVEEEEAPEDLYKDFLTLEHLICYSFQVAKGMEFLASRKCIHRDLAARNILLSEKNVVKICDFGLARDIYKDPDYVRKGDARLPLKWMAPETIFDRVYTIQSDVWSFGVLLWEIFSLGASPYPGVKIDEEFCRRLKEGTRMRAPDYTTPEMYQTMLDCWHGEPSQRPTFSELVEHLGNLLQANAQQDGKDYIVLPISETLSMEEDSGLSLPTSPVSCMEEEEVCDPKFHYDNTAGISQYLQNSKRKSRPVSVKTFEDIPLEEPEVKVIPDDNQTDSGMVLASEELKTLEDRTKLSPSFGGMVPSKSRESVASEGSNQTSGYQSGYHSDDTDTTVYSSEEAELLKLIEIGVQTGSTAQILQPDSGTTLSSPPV
Sequence of Synaptic vesicular amine transporter (Q01827 whole entry): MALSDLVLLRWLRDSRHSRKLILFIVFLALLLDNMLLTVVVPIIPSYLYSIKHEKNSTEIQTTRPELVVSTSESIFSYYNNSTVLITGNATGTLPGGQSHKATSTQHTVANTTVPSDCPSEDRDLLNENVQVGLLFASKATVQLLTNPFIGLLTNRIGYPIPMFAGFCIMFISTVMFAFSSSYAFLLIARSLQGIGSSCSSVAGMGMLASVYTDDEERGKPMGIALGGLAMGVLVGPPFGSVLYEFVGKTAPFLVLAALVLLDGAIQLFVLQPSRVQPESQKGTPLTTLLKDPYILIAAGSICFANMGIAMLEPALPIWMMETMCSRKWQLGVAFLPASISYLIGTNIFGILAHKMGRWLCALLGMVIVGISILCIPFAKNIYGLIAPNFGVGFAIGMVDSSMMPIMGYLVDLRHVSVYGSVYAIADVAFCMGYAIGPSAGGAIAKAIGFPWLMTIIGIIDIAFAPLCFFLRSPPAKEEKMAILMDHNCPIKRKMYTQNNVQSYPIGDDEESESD
Sequence of 5-hydroxytryptamine receptor 5A (P47898 whole entry): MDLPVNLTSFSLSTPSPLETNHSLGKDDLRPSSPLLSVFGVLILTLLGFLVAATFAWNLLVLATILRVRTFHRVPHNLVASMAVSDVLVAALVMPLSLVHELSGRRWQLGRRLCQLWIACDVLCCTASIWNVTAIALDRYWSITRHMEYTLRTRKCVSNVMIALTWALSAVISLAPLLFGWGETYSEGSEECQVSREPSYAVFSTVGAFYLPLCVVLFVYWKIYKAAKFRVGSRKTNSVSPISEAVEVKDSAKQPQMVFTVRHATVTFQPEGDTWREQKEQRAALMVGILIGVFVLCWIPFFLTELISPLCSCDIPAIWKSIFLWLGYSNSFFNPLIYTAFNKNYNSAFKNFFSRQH
Sequence of D(1B) dopamine receptor (P21918 whole entry): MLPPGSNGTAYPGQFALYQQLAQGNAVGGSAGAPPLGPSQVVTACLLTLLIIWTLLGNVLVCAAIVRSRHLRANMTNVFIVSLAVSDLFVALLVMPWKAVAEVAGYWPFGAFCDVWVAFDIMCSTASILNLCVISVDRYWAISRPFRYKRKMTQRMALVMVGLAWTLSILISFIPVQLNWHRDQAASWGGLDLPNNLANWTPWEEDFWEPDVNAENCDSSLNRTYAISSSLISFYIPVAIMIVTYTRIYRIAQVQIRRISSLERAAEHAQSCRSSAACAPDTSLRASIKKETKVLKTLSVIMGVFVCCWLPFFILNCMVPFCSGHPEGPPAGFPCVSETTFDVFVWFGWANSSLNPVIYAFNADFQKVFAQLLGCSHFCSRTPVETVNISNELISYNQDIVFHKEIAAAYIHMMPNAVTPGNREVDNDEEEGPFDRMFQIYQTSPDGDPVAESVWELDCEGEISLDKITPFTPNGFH

Turning to `COc1ccc(CC2c3cc(OC)c(OC)cc3CC[N+]2(C)CCC(=O)OCCCCCOC(=O)CC[N+]2(C)CCc3cc(OC)c(OC)cc3C2Cc2ccc(OC)c(OC)c2)cc1OC` (stereo not drawn), half-maximal activity in [1] (AC50) was put at 18.9 µM.

Take `CCN1CCN(Cc2ccc(Nc3ncc(F)c(-c4cc(F)c5nc(C)n(C(C)C)c5c4)n3)nc2)CC1` [ABEMACICLIB]: the half-maximal activity concentration (AC50) (as a rule, the concentration giving half of the maximal activity seen) in [2] is greater than 30 µM; in [3], 14 µM; on Acetylcholinesterase, greater than 30 µM.

With `CCCN(CCC)C(=O)Cc1c(-c2ccc(Cl)cc2)nc2ccc(Cl)cn12` [ALPIDEM], the half-maximal activity concentration (AC50) (at Substance-K receptor; in assay [4]) was greater than 10 µM in each case.

In the case of `COc1cc2nccc(Oc3ccc(NC(=O)C4(C(=O)Nc5ccc(F)cc5)CC4)cc3)c2cc1OC` [CABOZANTINIB], the AC50 was 6.2 µM in [2] and greater than 30 µM at Acetylcholinesterase.

Turning to `CC(C(=O)O)c1ccc2c(c1)[nH]c1ccc(Cl)cc12` (stereo not drawn) [CARPROFEN], the half-maximal activity concentration (AC50) in [5] and in [6] was greater than 30 µM in each case.

Regarding `COc1ccccc1OCCNCC(O)COc1cccc2[nH]c3ccccc3c12` (stereo not drawn) [CARVEDILOL], the half-maximal activity concentration (AC50) in assay [1] is greater than 30 µM.

On to `CC(C)N(CCC(C(N)=O)(c1ccccc1)c1ccccn1)C(C)C` (stereo not drawn) [DISOPYRAMIDE], for which half-maximal activity in [1] (AC50) was put at 29.7 µM.

In assay [7], `OC[C@H]1O[C@@H](c2ccc(Cl)c(Cc3ccc(O[C@H]4CCOC4)cc3)c2)[C@H](O)[C@@H](O)[C@@H]1O` [EMPAGLIFLOZIN] yielded an AC50 of 16 µM. This lies in the double-digit micromolar range.

On to `CC(C)(O)CNc1nc(Nc2ccnc(C(F)(F)F)c2)nc(-c2cccc(C(F)(F)F)n2)n1` [ENASIDENIB], for which the concentration at half-maximal activity (AC50) in [7] turned out to be 1.8 µM.

Consider `CC(C)C[C@H](NC(=O)CNC(=O)c1cc(Cl)ccc1Cl)B(O)O` [IXAZOMIB], for which the AC50 in assay [7] is greater than 30 µM.

`N[C@@H](CC(=O)N1CCn2c(nnc2C(F)(F)F)C1)Cc1cc(F)c(F)cc1F` [SITAGLIPTIN]: the concentration at half-maximal activity (AC50) (in [8]; at D(1B) dopamine receptor; at Substance-K receptor; in assay [4]; in [9]) was greater than 10 µM each time.

Turning to `CCN(CC)CCNC(=O)c1c(C)[nH]c(/C=C2\C(=O)Nc3ccc(F)cc32)c1C` [SUNITINIB], the AC50 was greater than 30 µM in [5], greater than 10 µM in assay [4], 10 µM in assay [9] and greater than 3 µM in assay [6].

Regarding `C=CC[C@@H]1/C=C(\C)C[C@H](C)C[C@H](OC)[C@H]2O[C@@](O)(C(=O)C(=O)N3CCCC[C@H]3C(=O)O[C@H](/C(C)=C/[C@@H]3CC[C@@H](O)[C@H](OC)C3)[C@H](C)[C@@H](O)CC1=O)[C@H](C)C[C@@H]2OC` [TACROLIMUS ANHYDROUS], the AC50 (in [2]; in assay [3]; on Acetylcholinesterase) was greater than 30 µM throughout.

For `C[C@H](CCC(=O)O)[C@H]1CC[C@H]2[C@@H]3[C@@H](O)C[C@@H]4C[C@H](O)CC[C@]4(C)[C@H]3CC[C@]12C` [URSODIOL], the results for the AC50 (in [2]; in assay [3]; on Acetylcholinesterase) were greater than 30 µM, greater than 10 µM and greater than 30 µM, respectively.

Turning to `Cc1onc(-c2ccccc2)c1-c1ccc(S(N)(=O)=O)cc1` [VALDECOXIB], the half-maximal activity concentration (AC50) was greater than 30 µM in assay [1]; greater than 10 µM in assay [8]; greater than 10 µM at D(1B) dopamine receptor; greater than 10 µM at Substance-K receptor; greater than 10 µM in [4]; greater than 10 µM in assay [9].

Turning to `CCCC(CCC)C(=O)O` [VALPROIC ACID], the AC50 (on Substance-K receptor; in assay [4]) was greater than 10 µM throughout.
